Calls of active or inactive are those of the source. No cut-off for these calls is given here.
Tests used:
[1] = system: Trypanosoma brucei brucei; assay: Resistance factor, ratio of IC50 for TbAT1 knock out Trypanosoma brucei brucei mutant to IC50 for wild type Trypanosoma brucei brucei s427; format: functional
[2] = system: Trypanosoma brucei brucei; assay: Resistance factor, ratio of IC50 for TbAT1 knock out and pentamidine-resistant Trypanosoma brucei brucei B48 mutant to IC50 for wild type Trypanosoma brucei brucei s427; format: functional
[3] = system: Trypanosoma brucei brucei; assay: Antitrypanosomal activity against TbAT1 knock out and pentamidine-resistant Trypanosoma brucei brucei B48 mutant after 48 hrs by alamar blue assay; format: functional, organism-based
[4] = system: Trypanosoma brucei brucei; assay: Antitrypanosomal activity against TbAT1 knock out Trypanosoma brucei brucei mutant after 48 hrs by alamar blue assay; format: functional, organism-based
[5] = system: Trypanosoma brucei brucei; assay: Antitrypanosomal activity against wild type Trypanosoma brucei brucei s427 after 48 hrs by alamar blue assay; format: functional, organism-based; conditions: s427, 48 h
[6] = system: Trypanosoma brucei brucei; assay: Inhibition of DNA replication in wild type Trypanosoma brucei brucei s427 assessed as kinetoplast disintegrate at IC50 after 24 hrs by DAPI staining visualized by fluorescence microscopy; format: functional, organism-based

With `CC(C)(C)OC(=O)NCCCC(N)(C(=O)OCCCNc1nc(N)nc(N)n1)C(F)F` (stereo not drawn) the “Ratio IC50” value [1] was 1, the “Ratio IC50” value [2] was 2.3 and the IC50 [3] was 888 µM. The IC50 [4] was 400 µM and the IC50 [5] was 382 µM.
`CCn1cc(C(=O)O)c(=O)c2cc(F)c(N3CCNCC3)cc21` [NORFLOXACIN] was tested, and the Activity [6] was “Active” and the IC50 [5] was 39.9 µM.
Work on `Nc1nc(N)nc(NCCCO)n1` yielded an IC50 [3] of over 100 µM, an IC50 [4] of over 100 µM and an IC50 [5] of over 100 µM.
In the case of `CCn1cc(C(=O)O)c(=O)c2cc(F)c(N3CCN(c4nc(N)nc(N)n4)CC3)cc21`, the “Ratio IC50” value [1] is reported as 6.3, the “Ratio IC50” value [2] is reported as 5.3 and the IC50 [3] is reported as 27.7 µM. The Activity [6] was “inactive”, the IC50 [4] was 32.7 µM and the IC50 [5] was 5.2 µM.
Compound `Nc1nc(N)nc(N2CCN(c3cc4c(cc3F)c(=O)c(C(=O)O)cn4C3CC3)CC2)n1` has an IC50 [5] of 4940 µM.
`Nc1nc(N)nc(NCCCC(N)(C(=O)O)C(F)F)n1` (stereo not drawn) was tested, and the IC50 [5] was over 100 µM.
`O=C(O)c1cn(C2CC2)c2cc(N3CCNCC3)c(F)cc2c1=O` [CIPROFLOXACIN] gave an IC50 [5] of 17.2 µM.
`C[C@H]1[C@H](OC(=O)CCC(=O)NCCCNc2nc(N)nc(N)n2)O[C@@H]2O[C@@]3(C)CC[C@H]4[C@H](C)CC[C@@H]1[C@@]24OO3` was tested, and the “Ratio IC50” value [1] was 1.1, the “Ratio IC50” value [2] was 2.7 and the IC50 [3] was 7.1 µM. For the same compound, the IC50 [4] was 2.9 µM and the IC50 [5] was 2.6 µM.
`C[C@H]1[C@H](OC(=O)CCC(=O)OCCCNc2nc(N)nc(N)n2)O[C@@H]2O[C@@]3(C)CC[C@H]4[C@H](C)CC[C@@H]1[C@@]24OO3` was tested, and the “Ratio IC50” value [1] was 1.2, the “Ratio IC50” value [2] was 3 and the IC50 [3] was 12.1 µM. The IC50 [4] was 5 µM and the IC50 [5] was 4 µM.
For `C[C@@H]1CN(c2c(F)c(N)c3c(=O)c(C(=O)O)cn(C4CC4)c3c2F)C[C@H](C)N1` [SPARFLOXACIN], the IC50 [5] was 18.5 µM.
With `C[C@H]1[C@H](OC(=O)CCC(=O)O)O[C@@H]2O[C@@]3(C)CC[C@H]4[C@H](C)CC[C@@H]1[C@@]24OO3` [ARTESUNATE] the “Ratio IC50” value [1] was 1.2, the “Ratio IC50” value [2] was 2.1 and the IC50 [3] was 27.5 µM. The IC50 [4] was 15 µM and the IC50 [5] was 12.8 µM.
`NCCCNc1nc(N)nc(N)n1` gave an IC50 [3] of over 100 µM, an IC50 [4] of over 100 µM and an IC50 [5] of over 100 µM.
In the case of `CC1COc2c(N3CCN(C)CC3)c(F)cc3c(=O)c(C(=O)OCCCNc4nc(N)nc(N)n4)cn1c23` (stereo not drawn), the “Ratio IC50” value [1] is reported as 1.1, the “Ratio IC50” value [2] is reported as 1 and the IC50 [3] is reported as 31.5 µM. The IC50 [4] was 35.7 µM and the IC50 [5] was 31.6 µM.
Compound `NCCCC(N)(C(=O)NCCCNc1nc(N)nc(N)n1)C(F)F` (stereo not drawn) has an IC50 [3] of over 100 µM, an IC50 [4] of over 100 µM and an IC50 [5] of over 100 µM.
Work on `CC1COc2c(N3CCN(C)CC3)c(F)cc3c(=O)c(C(=O)NCCCNc4nc(N)nc(N)n4)cn1c23` (stereo not drawn) yielded an IC50 [3] of over 100 µM, an IC50 [4] of over 100 µM and an IC50 [5] of 112 µM.
With `CC1COc2c(N3CCN(C)CC3)c(F)cc3c(=O)c(C(=O)O)cn1c23` (stereo not drawn) [OFLOXACIN] the IC50 [5] was over 100 µM.
Work on `NCCCC(N)(C(=O)OCCCNc1nc(N)nc(N)n1)C(F)F` (stereo not drawn) yielded an IC50 [3] of over 100 µM, an IC50 [4] of over 100 µM and an IC50 [5] of over 100 µM.
With `CCn1cc(C(=O)O)c(=O)c2cc(F)c(N3CCNC(C)C3)c(F)c21` (stereo not drawn) [LOMEFLOXACIN] the IC50 [5] was 197 µM.
`CC(C)(C)OC(=O)NCCCC(N)(C(=O)NCCCNc1nc(N)nc(N)n1)C(F)F` (stereo not drawn) was tested, and the “Ratio IC50” value [1] was 0.3, the IC50 [3] was over 100 µM and the IC50 [4] was 105 µM. It also gave an IC50 [5] of 355 µM.
